Drawing on patent US12428378B2, “Methods and materials for increasing level of phosphorylated AMPK protein” (University of Pittsburgh—Of the Commonwealth System of …, priority 2019, dated 2025), this text covers EC (30% increase) for 71 molecules.

Where only a bound is given, the exact number is not on record here.

In this assay the test system is pAMPK. In words: pAMPK immunostaining chemiluminescence assay in Beas2B cells. It is filed as cell-based. Conditions: Homo sapiens, BEAS-2B, 18 h, DMEM no glucose media, compounds 3-34, 36-44, 47-60 tested as HCl salts, read-out: efficacy (minimal compound concentration needed to increase pAMPK by 30%). The method, then:
Beas2B cells were plated in 384 white nunc plate (4000 cells per well) for overnight. Compounds were serially diluted in DMEM no glucose media using the liquid handler. Cells were washed once using Biotek EL406 before compound addition for additional 18 hours. Cells were washed and fixed with PFA before immunostained with pAMPK primary antibody and anti-Rabbit HRP secondary antibody. Finally, 25 μl of ECL reagent will be added to cells, and chemical luminescence signal will be counted using plate reader. Compounds efficacies (μM) were determined by the minimal compound concentration needed to increase pAMPK by 30%. Activity: “+” equals >10 μM; “++” equals between ≤10 μM and >1 μM; and “+++” equals ≤1 μM.

As for `O[C@@H](COc1ccc(C(F)(F)F)cc1)CN(Cc1ccccc1)Cc1ccccc1` [compound 1], the EC (30% increase) lay in the range of 1 to 10 µM. Under `O[C@H](COc1ccc(C(F)(F)F)cc1)CN(Cc1ccccc1)Cc1ccccc1` [compound 2] stands 1 to 10 µM. The figure for `OC(COc1ccc(C(F)(F)F)cc1)CN(CC1CCCCC1)CC1CCCCC1` (centres unmarked) [compound 3] is 1 to 10 µM. For `Cc1ccccc1CN(Cc1ccccc1C)CC(O)COc1ccc(C(F)(F)F)cc1` (centres unmarked) [compound 4], the EC (30% increase) is at most 1 µM.

On to `Cc1ccccc1CN(Cc1ccccc1)CC(O)COc1ccc(C(F)(F)F)cc1` (centres unmarked) [compound 5], for which the EC (30% increase) lay within 1 to 10 µM. Under `OC(COc1ccc(C(F)(F)F)cc1)CN(CCc1ccccc1)Cc1ccccc1` (centres unmarked) [compound 6] stands 1 to 10 µM; under `OC(COc1ccc(C(F)(F)F)cc1)CN(Cc1cccnc1)Cc1cccnc1` (centres unmarked) [compound 7], at most 1 µM.

Consider `Cc1ccccc1CN(Cc1cccnc1)CC(O)COc1ccc(C(F)(F)F)cc1` (centres unmarked) [compound 8], for which the EC (30% increase) is at most 1 µM. Under `OC(COc1cccnc1)CN(Cc1ccccc1)Cc1ccccc1` (centres unmarked) [compound 9] stands over 10 µM; under `OC(COc1ccccn1)CN(Cc1ccccc1)Cc1ccccc1` (centres unmarked) [compound 10], 1 to 10 µM. The figure for `CN(CC(O)COc1ccc(C(F)(F)F)cc1)CC(c1ccccc1)c1ccccc1` (centres unmarked) [compound 11] is 1 to 10 µM. The figure for `CC(CNCC(O)COc1ccc(C(F)(F)F)cc1)(c1ccccc1)c1ccccc1` (centres unmarked) [compound 12] is 1 to 10 µM; for `OC(COc1ccc(C(F)(F)F)cc1)CN(Cc1ccccc1)Cc1cncnc1` (centres unmarked) [compound 13] it is at most 1 µM; for `OC(CNCC(c1ccccc1)c1ccccc1)COc1ccc(C(F)(F)F)cc1` (centres unmarked) [compound 14] it is over 10 µM.

`OC(COc1ncccn1)CN(Cc1ccccc1)Cc1ccccc1` (centres unmarked) [compound 15]: the EC (30% increase) was over 10 µM. Under `OC(COc1cncnc1)CN(Cc1ccccc1)Cc1ccccc1` (centres unmarked) [compound 16] stands 1 to 10 µM. Under `OC(COc1ccncc1)CN(Cc1ccccc1)Cc1ccccc1` (centres unmarked) [compound 17] stands over 10 µM; under `Cc1cccc(C)c1OCC(O)CN(Cc1ccccc1)Cc1ccccc1` (centres unmarked) [compound 18], at most 1 µM. The figure for `OC(COc1ccc(C(F)(F)F)cc1)CN1Cc2ccccc2C1` (centres unmarked) [compound 19] is over 10 µM; for `OC(COc1ccc(C(F)(F)F)cc1)CN1Cc2ccccc2CC1c1ccccc1` (centres unmarked) [compound 20] it is 1 to 10 µM; for `OC(COc1ccc(C(F)(F)F)cc1)CN1Cc2ccccc2C1c1ccccc1` (centres unmarked) [compound 22] it is 1 to 10 µM. In the case of `Cc1ccccc1CN(Cc1cncnc1)CC(O)COc1ccc(C(F)(F)F)cc1` (centres unmarked) [compound 23], the EC (30% increase) is at most 1 µM.

As for `Cc1ccccc1CN(Cc1cccnc1)CC(O)COc1ccc(C(F)(F)F)cn1` (centres unmarked) [compound 24], the EC (30% increase) is over 10 µM. Under `OC(COc1ccc(C(F)(F)F)cc1)CN(Cc1cccnc1)Cc1ccccc1Cl` (centres unmarked) [compound 25] stands at most 1 µM; under `Cc1ncccc1CN(Cc1ccccc1)CC(O)COc1ccc(C(F)(F)F)cc1` (centres unmarked) [compound 26], at most 1 µM; under `Cc1ccncc1CN(Cc1ccccc1)CC(O)COc1ccc(C(F)(F)F)cc1` (centres unmarked) [compound 27], at most 1 µM. Under `Cc1ncccc1CN(Cc1cccnc1)CC(O)COc1ccc(C(F)(F)F)cc1` (centres unmarked) [compound 28] stands at most 1 µM. The figure for `Cc1ccncc1CN(Cc1cccnc1)CC(O)COc1ccc(C(F)(F)F)cc1` (centres unmarked) [compound 29] is at most 1 µM; for `Cc1ncccc1CN(Cc1cccnc1C)CC(O)COc1ccc(C(F)(F)F)cc1` (centres unmarked) [compound 30] it is 1 to 10 µM. On to `Cc1ccncc1C1OC(COc2ccc(C(F)(F)F)cc2)CN1Cc1cccnc1` (centres unmarked) [compound 31], for which the EC (30% increase) lay within 1 to 10 µM. The figure for `Cc1ccncc1CN(Cc1cccnc1C)CC(O)COc1ccc(C(F)(F)F)cc1` (centres unmarked) [compound 32] is at most 1 µM. Under `Cc1ccncc1CN(Cc1cnccc1C)CC(O)COc1ccc(C(F)(F)F)cc1` (centres unmarked) [compound 33] stands 1 to 10 µM; under `O=C(CCOc1ccc(C(F)(F)F)cc1)N(Cc1ccccc1)Cc1ccccc1` [compound 35], 1 to 10 µM; under `Cc1ccccc1CN(Cc1ncc[nH]1)CC(O)COc1ccc(C(F)(F)F)cc1` (centres unmarked) [compound 36], at most 1 µM. The figure for `Cc1ccccc1CN(Cc1cc[nH]n1)CC(O)COc1ccc(C(F)(F)F)cc1` (centres unmarked) [compound 37] is 1 to 10 µM; for `Cc1ccccc1CN(Cc1cnn(C)c1)CC(O)COc1ccc(C(F)(F)F)cc1` (centres unmarked) [compound 38] it is 1 to 10 µM; for `Cc1ccccc1CN(Cc1cnc[nH]1)CC(O)COc1ccc(C(F)(F)F)cc1` (centres unmarked) [compound 39] it is 1 to 10 µM.

Regarding `Cc1ccccc1CN(Cc1cncs1)CC(O)COc1ccc(C(F)(F)F)cc1` (centres unmarked) [compound 40], the EC (30% increase) was at most 1 µM. As to `OC(COc1ccc(C(F)(F)F)cc1)CN(Cc1ccncc1)Cc1ccncc1` (centres unmarked) [compound 41], the EC (30% increase) was in the range of 1 to 10 µM. For `OC(COc1ccc(C(F)(F)F)cc1)CN(Cc1ccccn1)Cc1ccccn1` (centres unmarked) [compound 42], the EC (30% increase) was at most 1 µM. The figure for `OC(COc1ccc(C(F)(F)F)cc1)CN(Cc1ccccc1)Cc1cccnc1` (centres unmarked) [compound 43] is at most 1 µM. As to `Cc1ccccc1CN(Cc1ccc(C(F)(F)F)nc1)CC(O)COc1ccc(F)cc1` (centres unmarked) [compound 44], the EC (30% increase) is at most 1 µM. Take `Cc1ccccc1CN(CC(O)COc1ccc(C(F)(F)F)cc1)C(=O)c1cccnc1` (centres unmarked) [compound 45]: the EC (30% increase) was at most 1 µM.

Turning to `CC(c1cccnc1)N(Cc1ccccc1)CC(O)COc1ccc(C(F)(F)F)cc1` (centres unmarked) [compound 46], the EC (30% increase) was at most 1 µM. Under `[2H]C([2H])(c1cccnc1)N(Cc1ccccc1)CC(O)COc1ccc(C(F)(F)F)cc1` (centres unmarked) [compound 47] stands at most 1 µM; under `OC(COc1ccc(C(F)(F)F)cc1)CN(Cc1ccccc1)C1(c2cccnc2)CC1` (centres unmarked) [compound 48], at most 1 µM; under `Cc1ccccc1CN(Cc1cccc(C(N)=O)c1)CC(O)COc1ccc(C(F)(F)F)cc1` (centres unmarked) [compound 49], 1 to 10 µM. `Cc1ccccc1CN(Cc1cccc(C#N)c1)CC(O)COc1ccc(C(F)(F)F)cc1` (centres unmarked) [compound 50]: the EC (30% increase) is over 10 µM. The figure for `Cc1ccccc1CN(Cc1ccc[n+]([O-])c1)CC(O)COc1ccc(C(F)(F)F)cc1` (centres unmarked) [compound 51] is 1 to 10 µM; for `Cc1ccccc1CN(CCc1ccccn1)CC(O)COc1ccc(C(F)(F)F)cc1` (centres unmarked) [compound 52] it is 1 to 10 µM; for `Cc1ccccc1CN(CC(O)COc1ccc(C(F)(F)F)cc1)c1cccc2ncccc12` (centres unmarked) [compound 54] it is 1 to 10 µM. The figure for `Cc1ccccc1CN(CC(O)COc1ccc(C(F)(F)F)cc1)c1cccnc1` (centres unmarked) [compound 55] is 1 to 10 µM. Under `OC(COc1ccc(C(F)(F)F)cc1)CN1Cc2ccccc2CC1c1cccnc1` (centres unmarked) [compound 56] stands at most 1 µM.

Take `OC(COc1ccc(C(F)(F)F)cc1)CC1=Nc2ccccc2CC1c1cccnc1` (centres unmarked) [compound 57]: the EC (30% increase) fell in the range of 1 to 10 µM. Under `Cc1ccccc1CN(Cc1ccc(=O)[nH]c1)CC(O)COc1ccc(C(F)(F)F)cc1` (centres unmarked) [compound 59] stands 1 to 10 µM; under `c1ccc(CN(CCCOc2ccccc2)Cc2ccccc2)cc1` [compound 61], 1 to 10 µM; under `O=C(CCOc1ccc(C(F)(F)F)cc1)N1Cc2ccccc2CC1c1cccnc1` (centres unmarked) [compound 62], 1 to 10 µM. Under `Cc1ccccc1CN(Cc1cccnc1)C(=O)CCOc1ccc(C(F)(F)F)cc1` [compound 64] stands 1 to 10 µM. Under `FC(F)(F)c1ccc(OCCCN2Cc3ccccc3CC2c2cccnc2)cc1` (centres unmarked) [compound 65] stands at most 1 µM.

With `Cc1ccccc1CN(CC(O)COc1ccc(C(F)(F)F)cc1)C(=O)c1ccccc1` (centres unmarked) [compound 66], the EC (30% increase) was at most 1 µM. As for `Cc1ccc(C(=O)N(Cc2ccccc2C)CC(O)COc2ccc(C(F)(F)F)cc2)cc1` (centres unmarked) [compound 67], the EC (30% increase) was at most 1 µM. The figure for `Cc1ccccc1CN(CC(O)COc1ccc(C(F)(F)F)cc1)S(=O)(=O)c1cccnc1` (centres unmarked) [compound 68] is at most 1 µM. `Cc1ccccc1CN(Cc1c[nH]cn1)CC(O)COc1ccc(C(F)(F)F)cc1` (centres unmarked) [compound 69]: the EC (30% increase) is at most 1 µM. The figure for `Cc1ccccc1CN(Cc1nccs1)CC(O)COc1ccc(C(F)(F)F)cc1` (centres unmarked) [compound 70] is at most 1 µM. Turning to `Cc1ccccc1CN(Cc1sccc1C)CC(O)COc1ccc(C(F)(F)F)cc1` (centres unmarked) [compound 71], the EC (30% increase) lay within 1 to 10 µM. Under `Cc1ccccc1CN(Cc1nccn1C)CC(O)COc1ccc(C(F)(F)F)cc1` (centres unmarked) [compound 72] stands at most 1 µM. As to `Cc1ccccc1CN(Cc1c[nH]nc1-c1ccccc1)CC(O)COc1ccc(C(F)(F)F)cc1` (centres unmarked) [compound 73], the EC (30% increase) lay within 1 to 10 µM. Under `Cc1ccccc1CN(CC(O)COc1ccc(C(F)(F)F)cc1)C(=O)c1c[nH]cn1` (centres unmarked) [compound 74] stands 1 to 10 µM. The figure for `Cc1ccccc1CN(CC(O)COc1ccc(C(F)(F)F)cc1)C(=O)c1cc[nH]n1` (centres unmarked) [compound 75] is 1 to 10 µM; for `Cc1ccccc1CN(CC(O)COc1ccc(C(F)(F)F)cc1)C(=O)c1cn[nH]c1` (centres unmarked) [compound 76] it is 1 to 10 µM; for `Cc1ccccc1CN(CC(O)COc1ccc(C(F)(F)F)cc1)C(=O)c1ncc[nH]1` (centres unmarked) [compound 77] it is 1 to 10 µM.
